Assay results published in publication PMC7108740, “Exploring the molecular structures that confer ligand selectivity for galanin type II and III receptors” (PLoS ONE, 2020).

Experiments:
Type in all cases: cell-based
[1] = target: T1, GALR3 single mutant A^264P (Homo sapiens, UniProt O60755, A264P); test: SRE-luc luciferase assay, GALR3 A264P; conditions: GALR3 A^264P; SRE-luc in HEK293 Gqi cells, ligand 6 h; mean ± S.E.; SEM
T1 construct: expressed in transfected cells; host or cells: HEK293 cells stably expressing Gqi
T1 sequence (O60755 whole entry A264P): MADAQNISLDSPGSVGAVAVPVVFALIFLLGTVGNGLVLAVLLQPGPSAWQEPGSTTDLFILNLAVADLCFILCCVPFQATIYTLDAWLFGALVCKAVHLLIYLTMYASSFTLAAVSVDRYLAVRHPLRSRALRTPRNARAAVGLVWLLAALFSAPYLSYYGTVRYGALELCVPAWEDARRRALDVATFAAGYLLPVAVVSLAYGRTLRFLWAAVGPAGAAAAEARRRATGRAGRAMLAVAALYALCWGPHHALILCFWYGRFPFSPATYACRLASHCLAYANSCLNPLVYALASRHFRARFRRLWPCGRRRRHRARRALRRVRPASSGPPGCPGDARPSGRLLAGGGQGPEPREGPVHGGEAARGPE
Description: (§1) For domain swapping between GALR2 and GALR3, individual cDNA fragments of interest were amplified by polymerase chain reaction (PCR) with Pfu polymerase (ELPIS Biotech, Daejeon, Korea) and two specific primers, one corresponding to the 5' or 3' end of the GALR2 or GALR3 cDNA and the other to the region of overlap between the two receptors. The two resulting fragments, one from GALR2 and the other from GALR3, were subjected to a second round of PCR to generate the chimeric cDNAs. To construct single, double-, triple-, pentuple-, hextuple-, and septuple-mutant receptors, amino acids of GALR3 were substituted for the amino acids at the corresponding positions in GALR2 using PCR-based site-directed mutagenesis. All of the chimeric constructs were cloned into the pcDNA3 expression vector at HindⅢ and XbaⅠ sites. The DNA sequences of the chimeras were verified by automatic sequencing. […] The luciferase activity in 50 μl cell extract was determined using a luciferase assay system according to the standard protocol for the Synergy 2 Multi-Mode Microplate Reader (BioTek, Winooski, VT, USA). […] The concentrations of agonists that induced half-maximal stimulation (EC50) were calculated using the GraphPad PRISM5 software (GraphPad software, Inc., San Diego, CA). […]

GALR3 septuple = target: T2, GALR3 septuple (Homo sapiens, UniProt O60755, A190V/A191F/C272L/G192S/L100F/Y103F/Y107H); test: cAMP assay (inhibition of forskolin-induced cAMP), GALR3 septuple mutant; conditions: Glosensor-22F cAMP HEK293 cells, agonist 10 min then forskolin 10 μM, mean ± SE, SEM
T2 construct: expressed in transfected cells; host or cells: HEK293 cells stably expressing pGlosensor-22F cAMP plasmid
T2 sequence (O60755 1-368 L100F/Y103F/Y107H/A190V/A191F/G192S/C272L): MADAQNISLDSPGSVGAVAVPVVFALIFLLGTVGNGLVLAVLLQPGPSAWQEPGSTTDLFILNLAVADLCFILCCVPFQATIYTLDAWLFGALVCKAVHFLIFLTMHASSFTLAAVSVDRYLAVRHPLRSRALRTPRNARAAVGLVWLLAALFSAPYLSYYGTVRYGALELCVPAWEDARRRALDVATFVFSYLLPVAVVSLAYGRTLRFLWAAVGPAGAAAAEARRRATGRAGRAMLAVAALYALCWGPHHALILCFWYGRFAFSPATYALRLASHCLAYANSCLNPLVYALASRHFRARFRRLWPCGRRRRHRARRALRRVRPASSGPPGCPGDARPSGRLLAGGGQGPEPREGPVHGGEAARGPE
Description: SPX-induced or Qu-SPX-induced cyclic adenosine monophosphate (cAMP) mobilization was measured in HEK293 cells stably expressing the pGlosensor^TM-22F cAMP plasmid (Promega Corp., Madison, WI, USA). The Glosensor-22F cAMP HEK293 cells were seeded on 96-well plates at a density of 2.0 × 10^4 cells/well 24 h before transfection. A mixture including 100 ng expression plasmid and lipofectamine 2000 reagent in diluted Opti-MEM (Gibco) was incubated at room temperature for 20 min. The mixtures were added into each well according to the manufacturer's instructions (Invitrogen, CA, USA). After 48 h, Glosensor cAMP substrates were added to the transfected cells in CO2-independent media. After 2 h, the cells were incubated with a range of agonist concentrations or vehicle for 10 min and then exposed to foskolin (10 μM). Luminescence was measured for up to 30 min using a Microplate Reader (BioTek, Winooski, VT, USA).
Data analysis was performed by non-linear regression with a sigmoidal dose-response curve. The concentrations of agonists that induced half-maximal stimulation (EC50) were calculated using the GraphPad PRISM5 software (GraphPad software, Inc., San Diego, CA). All data are presented as the mean ± standard error (SE) of at least three independent experiments. […]

[2] = target: T3, GALR3 single mutant C^272L (Homo sapiens, UniProt O60755, C272L); test: SRE-luc luciferase assay, GALR3 C272L; conditions: GALR3 C^272L; SRE-luc in HEK293 Gqi cells, ligand 6 h; mean ± S.E.; SEM
T3 construct: expressed in transfected cells; host or cells: HEK293 cells stably expressing Gqi
T3 sequence (O60755 whole entry C272L): as the sequence (O60755 whole entry A264P) above, with P264A, C272L counted along it
Description: as §1

[3] = target: T4, GALR3 single mutant S^266T (Homo sapiens, UniProt O60755, S266T); test: SRE-luc luciferase assay, GALR3 S266T; conditions: GALR3 S^266T; SRE-luc in HEK293 Gqi cells, ligand 6 h; mean ± S.E.; SEM
T4 construct: expressed in transfected cells; host or cells: HEK293 cells stably expressing Gqi
T4 sequence (O60755 whole entry S266T): as the sequence (O60755 whole entry A264P) above, with P264A, S266T counted along it
Description: as §1

- EC50 [1]: 0.274 ± 0.076 µM
- EC50 (GALR3 septuple): 0.0776 ± 0.0387 µM
- EC50 [2]: 0.0288 ± 0.00696 µM
- EC50 [3]: 0.038 ± 0.0105 µM
Compound: CSCC[C@H](NC(=O)[C@H](C)NC(=O)[C@H](CCC(N)=O)NC(=O)[C@@H]1CCCN1C(=O)[C@@H](NC(=O)[C@H](Cc1c[nH]c2ccccc12)NC(=O)[C@@H](N)CC(N)=O)[C@@H](C)O)C(=O)N[C@@H](CC(C)C)C(=O)N[C@@H](Cc1ccc(O)cc1)C(=O)N[C@@H](CC(C)C)C(=O)N[C@@H](CCCCN)C(=O)NCC(=O)N[C@@H](C)C(=O)N[C@@H](CCC(N)=O)C(N)=O [SPX, reference compound]
